Assay results from patent US7396841B2, “Injections” (Takeda Pharmaceutical Company Limited, priority 2000, dated 2008).

Assay: Dissolution of compound A in equimolar 0.2 mol/L sodium hydroxide and appearance of aqueous preparations (Examples 1 and 2)
Format: physicochemical
Method: The resultant solutions (1 mL and 2 mL) were filled into vials to prepare injectable compositions of formulations 1 and 2 in Table 1.
In accordance with the formulation of preparation solution in Table 2, the compound A was dissolved in the equivalent amount (in molar ratio) of a sodium hydroxide aqueous solution (0.2 mol/L), and then mannitol, N-methylglucamine and a water for injection were added thereto to dissolve followed by sterile filtration with a filter (0.22 μm) made from Durapola (manufactured by Nihon Millipore Ltd.) to prepare a preparation solution for injectable composition A.

Cc1c(OCC(F)(F)F)ccnc1C[S+]([O-])c1nc2ccccc2[nH]1 (centres unmarked) [Compound A, 2-[[[3-methyl-4-(2,2,2-trifluoroethoxy)-2-pyridinyl]methyl]sulfinyl]-1H-benzimidazole]
Appearance of resultant solution (compound A in equimolar sodium hydroxide aqueous solution (0.2 mol/L)): transparent and colorless
Dissolution of compound A (in the equivalent amount (in molar ratio) of a sodium hydroxide aqueous solution (0.2 mol/L)): quickly dissolved
